In patent US20230011869A1 (Hoffmann-La Roche Inc., priority 2018, published 2023):
Counter-ions that a name gives are not always drawn.

These compounds were tested on Acinetobacter baumannii ATCC17978 (assay: Antimicrobial susceptibility testing: 90% growth inhibitory concentration (IC90) determination, Iso-Sensitest broth). Conditions: 90% growth inhibitory concentration, Acinetobacter baumannii ATCC17978, Iso-Sensitest broth, OD 600 nm over 16 h; read-out: ATCC17978 IC90.
Assay type: cell-based
Method in brief: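 A. baumannii ATCC17978 grown in Iso-Sensitest broth across 10 compound concentrations at 35±2 °C.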

| Structure (SMILES) | IC90 |
| --- | --- |
| COc1ccc(-c2cnc3c(Nc4ccc(C(=O)N5CCC(C(=O)NCC6CNC6)CC5)c(C)c4)nccn23)cc1F [Example 65, N-(azetidin-3-ylmethyl)-1-(4-((3-(3-fluoro-4-methoxyphenyl)imidazo[1,2-a]pyrazin-8-yl)amino)-2-methylbenzoyl)piperidine-4-carboxamide] | 250 nM |
| COc1ccc(-c2cnc3c(Nc4ccc(C(=O)N5CCC(N(C)C)C5)c(C)c4)nccn23)cc1 (stereo not shown) [Example 384, [3-(dimethylamino)pyrrolidin-1-yl]-[4-[[3-(4-methoxyphenyl)imidazo[1,2-a]pyrazin-8-yl]amino]-2-methylphenyl]methanone] | 5200 nM |
| Cc1cc(Nc2nccn3c(-c4ccc(OC(F)F)cc4)cnc23)ccc1C(=O)N1CCN(C(=O)N(C)C)CC1 [Example 135, 4-[4-[[3-[4-(difluoromethoxy)phenyl]imidazo[1,2-a]pyrazin-8-yl]amino]-2-methyl-benzoyl]-N,N-dimethyl-piperazine-1-carboxamide] | 280 nM |
| Cc1cc(Nc2nccn3c(-c4ccc(OC(F)F)cc4)cnc23)ccc1C(=O)N1CC[C@@H](C(=O)N2CCNCC2)[C@H](O)C1 (racemic) [Example 438, [4-[[3-[4-(difluoromethoxy)phenyl]imi-dazo[1,2-a]pyrazin-8-yl]amino]-2-methylphenyl]-[rac-(3R,4S)-3-hydroxy-4-(piperazine-1-carbonyl)piperidin-1-yl]methanone; 2,2,2-trifluoroacetic acid] | 830 nM |

The remaining lines, values ahead:

| IC90 | Structure (SMILES) |
| --- | --- |
| 220 nM | COc1ccc(-c2cnc3c(Nc4ccc(C(=O)N5CCN(C(=O)[C@@H]6CCNC[C@@H]6O)CC5)c(C)c4)nccn23)c(Cl)c1F (relative stereo) [Example 218, [4-[[3-(2-chloro-3-fluoro-4-methoxy-phenyl)imidazo[1,2-a]pyrazin-8-yl]amino]-2-methyl-phenyl]-[4-[(3R,4R)-3-hydroxypiperidine-4-carbonyl]piperazin-1-yl]methanone] |
| 290 nM | COc1ccc(-c2cnc3c(Nc4ccc(C(=O)N5CCN(C(=O)[C@@H]6CCNC[C@H]6O)CC5)c(C)c4)nccn23)c(F)c1F [Example 193, [4-[[3-(2,3-difluoro-4-methoxy-phenyl)imidazo[1,2-a]pyrazin-8-yl]amino]-2-methyl-phenyl]-[4-[(3S,4R)-3-hydroxypiperidine-4-carbonyl]piperazin-1-yl]methanone hydrochloride] |
| 400 nM | COc1ccc(-c2cnc3c(Nc4ccc(C(=O)N5CCC(N6CCC(O)CC6)CC5)c(C)c4)nccn23)cc1F [Example 401, [4-[[3-(3-fluoro-4-methoxyphenyl)imidazo[1,2-a]pyrazin-8-yl]amino]-2-methylphenyl]-[4-(4-hydroxypiperidin-1-yl)piperidin-1-yl]methanone] |
| 170 nM | COc1ccc(-c2cnc3c(Nc4ccc(C(=O)N5CCC(C(=O)N[C@@H]6CCNC6)CC5)c(C)c4)nccn23)c(F)c1F [Example 63, (R)-1-(4-((3-(2,3-difluoro-4-methoxyphenyl)imidazo[1,2-a]pyrazin-8-yl)amino)-2-methylbenzoyl)-N-(pyrrolidin-3-yl)piperidine-4-carboxamide hydrochloride] |
| 130 nM | Cc1cc(Nc2nccn3c(-c4ccc(OC(F)F)cc4)cnc23)ccc1C(=O)N1CCC(C(=O)N2CCNCC2CO)CC1 (stereo not shown) [Example 181, [4-[[3-[4-(difluoromethoxy)phenyl]imidazo[1,2-a]pyrazin-8-yl]amino]-2-methyl-phenyl]-[4-[2-(hydroxymethyl)piperazine-1-carbonyl]-1-piperidyl]methanone hydrochloride] |
| 400 nM | Cc1cc(Nc2nccn3c(-c4ccc(OC5(C#N)CC5)c(F)c4F)cnc23)ccc1C(=O)N1CCC(CN)CC1 [Example 115, 1-[4-[8-[4-[4-(aminomethyl)piperidine-1-carbonyl]-3-methyl-anilino]imidazo[1,2-a]pyrazin-3-yl]-2,3-difluoro-phenoxy]cyclopropanecarbonitrile formate] |
| 150 nM | Cc1cc(Nc2nccn3c(-c4ccc(OC(F)F)cc4)cnc23)ccc1C(=O)N1CCC(CN)CC1 [Example 18, (4-(aminomethyl)piperidin-1-yl)(4-((3-(4-(difluoromethoxy)phenyl)imidazo[1,2-a]pyrazin-8-yl)amino)-2-methylphenyl)methanone hydrochloride] |
| 250 nM | COc1ccc(-c2cnc3c(Nc4ccc(C(=O)N5CCN(C(=O)[C@H]6CCNC6)CC5)c(C)c4)nccn23)cc1F [Example 186, [4-[[3-(3-fluoro-4-methoxy-phenyl)imidazo[1,2-a]pyrazin-8-yl]amino]-2-methyl-phenyl]-[4-[(3S)-pyrrolidine-3-carbonyl]piperazin-1-yl]methanone hydrochloride] |
| 670 nM | Cc1cc(Nc2nccn3c(-c4ccc(OC(F)F)cc4)cnc23)ccc1C(=O)N1CCN(CCN)CC1 [Example 24, [4-(2-aminoethyl)piperazin-1-yl]-[4-[[3-[4-(difluoromethoxy)phenyl]imidazo[1,2-a]pyrazin-8-yl]amino]-2-methyl-phenyl]methanone] |
| 1200 nM | COc1ccc(-c2cnc3c(Nc4ccc(C(=O)N5CCN(C)CC5)c(C)c4)nccn23)cc1 [Example 5, (4-((3-(4-methoxyphenyl)imidazo[1,2-a]pyrazin-8-yl)amino)-2-methylphenyl)(4-methylpiperazin-1-yl)methanone] |
| 170 nM | Cc1cc(Nc2nccn3c(-c4ccc(OCC#N)c(F)c4Cl)cnc23)ccc1C(=O)N1CCC(C(=O)N2CCNC[C@@H]2CO)CC1 [Example 207, 2-[3-chloro-2-fluoro-4-[8-[4-[4-[(2R)-2-(hydroxymethyl)piperazine-1-carbonyl]piperidine-1-carbonyl]-3-methyl-anilino]imidazo[1,2-a]pyrazin-3-yl]phenoxy] acetonitrile] |

Same assay, conditions: Acinetobacter baumannii, ATCC17978, 16 h, read-out: ATCC17978 IC90, 90% growth inhibitory concentration, Acinetobacter baumannii ATCC17978, Iso-Sensitest broth, OD 600 nm over 16 h

| Structure (SMILES) | IC90 |
| --- | --- |
| COc1ccc(-c2cnc3c(Nc4ccc(C(=O)N5CCC(C(=O)N[C@@H]6CNC[C@H]6O)CC5)c(C)c4)nccn23)cc1F [Example 56, 1-(4-((3-(3-fluoro-4-methoxyphenyl)imidazo[1,2-a]pyrazin-8-yl)amino)-2-methylbenzoyl)-N-((3R,4R)-4-hydroxypyrrolidin-3-yl)piperidine-4-carboxamide 2,2,2-trifluoroacetate] | 220 nM |
| Cc1cc(Nc2nccn3c(-c4ccc(OC(F)F)cc4)cnc23)ccc1C(=O)N1CCN(C(=O)C2CC3(CNC3)C2)CC1 [Example 312, [4-(2-azaspiro[3.3]heptane-6-carbonyl)piperazin-1-yl]-[4-[[3-[4-(difluoromethoxy)phenyl]imi-dazo[1,2-a]pyrazin-8-yl]amino]-2-methylphenyl]methanone; hy-drochloride] | 220 nM |
| COc1ccc(-c2cnc3c(Nc4ccc(C(=O)N5CCC(C(=O)N6CC7(CNC7)C6)CC5)c(C)c4)nccn23)cc1F [Example 400, [4-(2,6-diazaspiro[3.3]heptane-2-carbonyl)piperidin-1-yl]-[4-[[3-(3-fluoro-4-methoxyphenyl)imidazo[1,2-a]pyrazin-8-yl]amino]-2-methylphenyl]methanone; 2,2,2-trifluoroacetic acid] | 390 nM |
| Cc1cc(Nc2nccn3c(-c4ccc(OC(F)F)cc4)cnc23)ccc1C(=O)N1CCN(C(=O)C2(C)CCNCC2)CC1 [Example 506, [4-[[3-[4-(difluoromethoxy)phenyl]imi-dazo[1,2-a]pyrazin-8-yl]amino]-2-methylphenyl]-[4-(4-methylpiperidine-4-carbonyl)piperazin-1-yl]methanone; hydrochloride] | 510 nM |
| Cc1cc(Nc2nccn3c(-c4ccc(O[C@H](C)C#N)c(F)c4F)cnc23)ccc1C(=O)N1CCN(C(=O)C2(O)CCNCC2)CC1 [Example 560, (2R)-2-[2,3-difluoro-4-[8-[4-[4-(4-hydroxypiperidine-4-carbonyl)piperazine-1-carbonyl]-3-methyl-anilino]imidazo[1,2-a]pyrazin-3-yl]phenoxy]propanenitrile formate] | 746 nM |
| CCc1cc(Nc2nccn3c(-c4ccc(OCC#N)c(F)c4F)cnc23)ccc1C(=O)N1CCN(C(=O)[C@H]2CCNC[C@@H]2O)CC1 (racemic) [Example 498, 2-[4-[8-[3-ethyl-4-[4-[rac-(3R,4S)-3-hydroxypiperidine-4-carbonyl]piperazine-1-carbonyl]anilino]imidazo[1,2-a]pyrazin-3-yl]-2,3-difluorophenoxy]acetonitrile; formic acid] | 330 nM |
| Cc1cc(Nc2nccn3c(-c4ccc(OC(F)F)cc4)cnc23)ccc1C(=O)N1CCN(C(=O)NCC2(O)CNC2)CC1 [Example 493, 4-[4-[[3-[4-(difluoromethoxy)phenyl]imi-dazo[1,2-a]pyrazin-8-yl]amino]-2-methylbenzoyl]-N-[(3-hydroxyazetidin-3-yl)methyl]piperazine-1-carboxamide; formic acid] | 310 nM |
| COc1cc(Cl)c(-c2cnc3c(Nc4ccc(C(=O)N5CCC(CN)CC5)c(C)c4)nccn23)cc1F [Example 26, [4-(aminomethyl)-1-piperidyl]-[4-[[3-(2-chloro-5-fluoro-4-methoxy-phenyl)imidazo[1,2-a]pyrazin-8-yl]amino]-2-methyl-phenyl]methanone hydrochloride] | 370 nM |
| COc1ccc(-c2cnc3c(Nc4ccc(C(=O)N5CCN(C(=O)[C@@H]6C[C@@H](OC(=O)[C@@H](N)CO)CN6)CC5)c(C)c4)nccn23)c(F)c1F [Example 563, [(3R,5S)-5-[4-[4-[[3-(2,3-difluoro-4-methoxy-phenyl)imidazo[1,2-a]pyrazin-8-yl]amino]-2-methyl-benzoyl]piperazine-1-carbonyl]pyrrolidin-3-yl] (2S)-2-amino-3-hydroxy-propanoate formate] | 135 nM |

Same assay, conditions: read-out: ATCC17978 IC90; 90% growth inhibitory concentration, Acinetobacter baumannii ATCC17978, Iso-Sensitest broth, OD 600 nm over 16 h; hydrochloride

| Structure (SMILES) | IC90 |
| --- | --- |
| Cc1cc(Nc2nccn3c(-c4ccc(OC(F)F)cc4)cnc23)ccc1C(=O)N1CCN(C(=O)CN)CC1 [Example 37, 2-amino-1-(4-(4-((3-(4-(difluoromethoxy)phenyl)imidazo[1,2-a]pyrazin-8-yl)amino)-2-methylbenzoyl)piperazin-1-yl)ethanone hydrochloride] | 180 nM |
